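Test compounds were applied to cells in 96-well plates for 48 hours at 5 doses. TGI is the concentration that stops growth completely.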
Columns and labels:
Assay in all cases: DTP human tumour cell line panel, 48 h
[1] = system: CAKI-1 renal
[2] = system: CCRF-CEM leukemia
[3] = system: HL-60(TB) leukemia
[4] = system: DLD-1 colon
[5] = system: LOX IMVI melanoma
[6] = system: M19-MEL melanoma
[7] = system: ACHN renal
[8] = system: SNB-75 CNS
[9] = system: NCI-H226 lung
[10] = system: UACC-62 melanoma
[11] = system: A549 NSCLC
[12] = system: SR leukemia
[13] = system: UO-31 renal
[14] = system: IGROV1 ovarian
[15] = system: M14 melanoma
[16] = system: HT29 colon
[17] = system: HOP-92 NSCLC
[18] = system: SK-MEL-2 melanoma
[19] = system: XF 498 CNS
[20] = system: SK-MEL-5 melanoma
[21] = system: SF-268 CNS
[22] = system: HCT-15 colon
[23] = system: SF-295 CNS
[24] = system: EKVX NSCLC
[25] = system: HCC-2998 colon
[26] = system: OVCAR-8 ovarian
[27] = system: NCI-H23 lung
[28] = system: NCI-H460 lung
[29] = system: MOLT-4 leukemia
[30] = system: TK-10 renal
[31] = system: 786-0 renal
[32] = system: U251 CNS
[33] = system: SF-539 CNS
[34] = system: SK-OV-3 ovarian
[35] = system: SN12C renal
[36] = system: SK-MEL-28 melanoma
[37] = system: OVCAR-4 ovarian
[38] = system: RPMI-8226 leukemia
[39] = system: A498 renal
[40] = system: KM12 colon
[41] = system: OVCAR-5 ovarian
[42] = system: SNB-78 CNS
[43] = system: COLO 205 colon
[44] = system: SW-620 colon
[45] = system: K-562 leukemia
[46] = system: LXFL 529 NSCLC
[47] = system: NCI-H522 lung
[48] = system: HOP-62 NSCLC
[49] = system: HCT-116 colon
[50] = system: MALME-3M melanoma
[51] = system: HOP-18 NSCLC
[52] = system: UACC-257 melanoma
[53] = system: OVCAR-3 ovarian
[54] = system: KM20L2 colon
[55] = system: DMS 273 small cell lung
[56] = system: DMS 114 small cell lung
[57] = system: SNB-19 CNS
[58] = system: RXF 393 renal

For O=C(Cc1ccccc1)N/N=C(/c1nc2ccc([N+](=O)[O-])cc2[nH]c1=O)C(O)c1ccccc1Cl (stereo not given), the TGI [1] was over 100 µM, the TGI [2] was over 100 µM and the TGI [3] was over 100 µM. It also gave a TGI [4] of over 100 µM, a TGI [5] of over 100 µM and a TGI [6] of over 100 µM. The TGI [7] was over 100 µM, the TGI [8] was over 100 µM and the TGI [9] was over 100 µM. For the same compound, the TGI [10] was over 100 µM, the TGI [11] was over 100 µM and the TGI [12] was over 100 µM. The TGI [13] was over 100 µM, the TGI [14] was over 100 µM and the TGI [15] was over 100 µM. For the same compound, the TGI [16] was over 100 µM, the TGI [17] was over 100 µM and the TGI [18] was over 100 µM. It also gave a TGI [19] of over 100 µM, a TGI [20] of over 100 µM and a TGI [21] of over 100 µM. For the same compound, the TGI [22] was over 100 µM, the TGI [23] was over 100 µM and the TGI [24] was over 100 µM. The TGI [25] was over 100 µM, the TGI [26] was over 100 µM and the TGI [27] was over 100 µM. The TGI [28] was over 100 µM, the TGI [29] was over 100 µM and the TGI [30] was over 100 µM. For the same compound, the TGI [31] was over 100 µM, the TGI [32] was over 100 µM and the TGI [33] was over 100 µM. The TGI [34] was over 100 µM, the TGI [35] was over 100 µM and the TGI [36] was over 100 µM. The TGI [37] was over 100 µM, the TGI [38] was over 100 µM and the TGI [39] was over 100 µM. It also gave a TGI [40] of over 100 µM, a TGI [41] of over 100 µM and a TGI [42] of over 100 µM. It also gave a TGI [43] of over 100 µM, a TGI [44] of over 100 µM and a TGI [45] of over 100 µM. The TGI [46] was over 100 µM, the TGI [47] was over 100 µM and the TGI [48] was over 100 µM. For the same compound, the TGI [49] was over 100 µM, the TGI [50] was over 100 µM and the TGI [51] was over 100 µM. For the same compound, the TGI [52] was over 100 µM.
In the case of O=C(Nc1ccccc1)c1cccc([N+](=O)[O-])c1, the TGI [1] was over 100 µM, the TGI [2] was over 100 µM and the TGI [6] was over 100 µM. The TGI [53] was over 100 µM, the TGI [7] was over 100 µM and the TGI [8] was over 100 µM. The TGI [10] was over 100 µM, the TGI [11] was over 100 µM and the TGI [14] was over 100 µM. It also gave a TGI [16] of over 100 µM, a TGI [17] of over 100 µM and a TGI [19] of over 100 µM. For the same compound, the TGI [20] was over 100 µM, the TGI [21] was over 100 µM and the TGI [22] was over 100 µM. The TGI [24] was over 100 µM, the TGI [25] was over 100 µM and the TGI [26] was over 100 µM. It also gave a TGI [29] of over 100 µM, a TGI [31] of over 100 µM and a TGI [32] of over 100 µM. It also gave a TGI [54] of over 100 µM, a TGI [33] of over 100 µM and a TGI [35] of over 100 µM. It also gave a TGI [36] of over 100 µM, a TGI [55] of over 100 µM and a TGI [38] of over 100 µM. For the same compound, the TGI [39] was over 100 µM, the TGI [42] was over 100 µM and the TGI [56] was over 100 µM. The TGI [43] was over 100 µM, the TGI [57] was over 100 µM and the TGI [44] was over 100 µM. It also gave a TGI [45] of over 100 µM, a TGI [48] of over 100 µM and a TGI [49] of over 100 µM. The TGI [50] was over 100 µM and the TGI [51] was over 100 µM.
Work on O=C1C=CC(=O)c2cc(Sc3ccccc3)c(=O)c(Sc3ccccc3)cc21 yielded a TGI [1] of over 100 µM, a TGI [2] of 60.9 µM and a TGI [3] of 27.7 µM. It also gave a TGI [4] of over 100 µM, a TGI [5] of over 100 µM and a TGI [6] of over 100 µM. For the same compound, the TGI [53] was over 100 µM, the TGI [7] was 36 µM and the TGI [8] was over 100 µM. The TGI [9] was over 100 µM, the TGI [10] was 81.6 µM and the TGI [11] was over 100 µM. It also gave a TGI [12] of over 100 µM, a TGI [13] of over 100 µM and a TGI [14] of over 100 µM. The TGI [15] was over 100 µM, the TGI [16] was over 100 µM and the TGI [17] was 50.5 µM. It also gave a TGI [18] of over 100 µM, a TGI [19] of over 100 µM and a TGI [20] of over 100 µM. The TGI [21] was over 100 µM, the TGI [22] was over 100 µM and the TGI [23] was over 100 µM. It also gave a TGI [24] of over 100 µM, a TGI [25] of over 100 µM and a TGI [58] of 51.2 µM. The TGI [26] was over 100 µM, the TGI [27] was over 100 µM and the TGI [28] was over 100 µM. The TGI [29] was over 100 µM, the TGI [30] was over 100 µM and the TGI [31] was over 100 µM. For the same compound, the TGI [32] was over 100 µM, the TGI [54] was over 100 µM and the TGI [33] was over 100 µM. The TGI [34] was over 100 µM, the TGI [35] was over 100 µM and the TGI [36] was over 100 µM. The TGI [55] was over 100 µM, the TGI [37] was over 100 µM and the TGI [38] was over 100 µM. The TGI [39] was over 100 µM, the TGI [40] was over 100 µM and the TGI [56] was 53.7 µM. It also gave a TGI [43] of over 100 µM, a TGI [57] of over 100 µM and a TGI [44] of over 100 µM. For the same compound, the TGI [45] was 61.9 µM, the TGI [46] was 70.3 µM and the TGI [47] was 25.4 µM. For the same compound, the TGI [48] was over 100 µM, the TGI [49] was over 100 µM and the TGI [51] was over 100 µM. The TGI [52] was over 100 µM.
With O=P(CCOc1ccccc1OCCP(=O)(c1ccccc1)c1ccc2c(c1)OCCOCCOCCOCCO2)(c1ccccc1)c1ccc2c(c1)OCCOCCOCCOCCO2 (stereo not given) the TGI [2] was over 100 µM, the TGI [3] was over 100 µM and the TGI [4] was over 100 µM. For the same compound, the TGI [5] was over 100 µM, the TGI [6] was over 100 µM and the TGI [53] was over 100 µM. For the same compound, the TGI [7] was over 100 µM, the TGI [8] was over 100 µM and the TGI [9] was over 100 µM. It also gave a TGI [10] of over 100 µM, a TGI [11] of over 100 µM and a TGI [12] of over 100 µM. The TGI [13] was over 100 µM, the TGI [14] was over 100 µM and the TGI [15] was over 100 µM. It also gave a TGI [16] of over 100 µM, a TGI [17] of over 100 µM and a TGI [18] of over 100 µM. The TGI [19] was over 100 µM, the TGI [20] was over 100 µM and the TGI [21] was over 100 µM. It also gave a TGI [22] of over 100 µM, a TGI [23] of over 100 µM and a TGI [24] of over 100 µM. For the same compound, the TGI [25] was over 100 µM, the TGI [58] was over 100 µM and the TGI [26] was over 100 µM. The TGI [27] was over 100 µM, the TGI [28] was over 100 µM and the TGI [29] was over 100 µM. For the same compound, the TGI [30] was over 100 µM, the TGI [31] was over 100 µM and the TGI [32] was over 100 µM. For the same compound, the TGI [54] was over 100 µM, the TGI [33] was over 100 µM and the TGI [34] was over 100 µM. For the same compound, the TGI [35] was over 100 µM, the TGI [36] was over 100 µM and the TGI [55] was over 100 µM. It also gave a TGI [37] of over 100 µM, a TGI [38] of over 100 µM and a TGI [39] of over 100 µM. The TGI [41] was over 100 µM, the TGI [42] was over 100 µM and the TGI [56] was over 100 µM. For the same compound, the TGI [43] was over 100 µM, the TGI [57] was over 100 µM and the TGI [44] was over 100 µM. The TGI [45] was over 100 µM, the TGI [46] was over 100 µM and the TGI [47] was over 100 µM. The TGI [48] was over 100 µM, the TGI [49] was over 100 µM and the TGI [50] was over 100 µM. It also gave a TGI [52] of over 100 µM.
